T1: (E)-β-farnesene synthase (EBFS) (Mentha x piperita, UniProt O48935)
T1 sequence (O48935 1-550): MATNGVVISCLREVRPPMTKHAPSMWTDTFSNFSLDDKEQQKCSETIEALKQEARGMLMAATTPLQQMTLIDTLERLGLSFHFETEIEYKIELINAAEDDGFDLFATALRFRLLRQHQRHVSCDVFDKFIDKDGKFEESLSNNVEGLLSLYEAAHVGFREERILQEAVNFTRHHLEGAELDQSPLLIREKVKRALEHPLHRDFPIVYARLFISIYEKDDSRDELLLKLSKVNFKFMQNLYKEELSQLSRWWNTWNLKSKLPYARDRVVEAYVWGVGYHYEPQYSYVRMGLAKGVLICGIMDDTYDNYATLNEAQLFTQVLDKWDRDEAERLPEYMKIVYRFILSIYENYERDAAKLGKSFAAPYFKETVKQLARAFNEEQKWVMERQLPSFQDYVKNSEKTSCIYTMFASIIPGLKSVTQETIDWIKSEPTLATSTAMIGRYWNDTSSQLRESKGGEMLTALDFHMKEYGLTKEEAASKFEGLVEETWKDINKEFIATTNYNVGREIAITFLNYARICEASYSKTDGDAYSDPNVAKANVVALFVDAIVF


How the values were obtained:
[1] = target: T1, (E)-β-farnesene synthase (EBFS); assay: steady-state inhibition, radiometric microassay; type: biochemical
[2] = substrate: C=CC(C)(CC/C=C(\C)CCC=C(C)C)OP(=O)(O)OP(=O)(O)O; assay: steady-state kinetics, radiometric microassay; type: biochemical, Mentha x piperita; conditions: labelled compound ((3RS)-(1Z)-trans-[1-3H1]NDP), racemic
[3] = substrate: CC(C)=CCC/C(C)=C/CC/C(C)=C(\F)COP(=O)(O)OP(=O)(O)O; assay: steady-state kinetics, radiometric microassay; type: biochemical, Mentha x piperita; conditions: labelled compound ((1RS)-2-fluoro[1-3H1]FDP)
purified protein = substrate: CC(C)=CCC/C(C)=C/CC/C(C)=C/CO[P@@](=O)(O)OP(=O)(O)O; assay: purified protein; conditions: labelled compound (tritiated)

Ki [1] | Molecule | Km [2] | Km [3] | Km (purified protein)
2.3 ± 0.2 µM | CC(C)=CCC/C(C)=C/CCC(=CCOP(=O)(O)OP(=O)(O)O)CF [3CH2F-3, (6E)-3-fluoromethylfarnesyl diphosphate] |  |  | 
1.6 ± 0.2 µM | CC(C)=CCC/C(C)=C/CC/C(=C/COP(=O)(O)OP(=O)(O)O)C(F)(F)F [3CF3-3, (6E)-3-trifluoromethylfarnesyl diphosphate] |  |  | 
1.3 ± 0.1 µM | CC(C)=CCC/C(C)=C/CC/C(C)=C(\F)COP(=O)(O)OP(=O)(O)O [2F-3, (2Z,6E)-2-fluorofarnesyl diphosphate] |  |  | 
 | (E)-β-farnesene synthase (EBFS) (Mentha x piperita) (protein) MATNGVVISCLREVRPPMTKHAPSMWTDTFSNFSLDDKEQQKCSETIEALKQEARGMLMAATTPLQQMTLIDTLERLGLSFHFETEIEYKIELINAAEDDGFDLFATALRFRLLRQHQRHVSCDVFDKFIDKDGKFEESLSNNVEGLLSLYEAAHVGFREERILQEAVNFTRHHLEGAELDQSPLLIREKVKRALEHPLHRDFPIVYARLFISIYEKDDSRDELLLKLSKVNFKFMQNLYKEELSQLSRWWNTWNLKSKLPYARDRVVEAYVWGVGYHYEPQYSYVRMGLAKGVLICGIMDDTYDNYATLNEAQLFTQVLDKWDRDEAERLPEYMKIVYRFILSIYENYERDAAKLGKSFAAPYFKETVKQLARAFNEEQKWVMERQLPSFQDYVKNSEKTSCIYTMFASIIPGLKSVTQETIDWIKSEPTLATSTAMIGRYWNDTSSQLRESKGGEMLTALDFHMKEYGLTKEEAASKFEGLVEETWKDINKEFIATTNYNVGREIAITFLNYARICEASYSKTDGDAYSDPNVAKANVVALFVDAIVF | 25.0 ± 4.2 µM | 1.6 ± 0.2 µM | 1.8 ± 0.2 µM

Source: publication PMC3530649 (Journal of the American Chemical Society, 2012)
